Data published in PubChem BioAssay (NCI).
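Compound exposure: 48 hours, 5 concentrations, 96-well plates. Definition used: TGI = concentration required for complete inhibition of growth.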

How the values were obtained:
Assay in all cases: NCI-60 cell line screen, 48 h
[1] = system: SF-539 CNS
[2] = system: SK-MEL-2 melanoma
[3] = system: SK-MEL-28 melanoma
[4] = system: SF-295 CNS
[5] = system: CAKI-1 renal
[6] = system: SF-268 CNS
[7] = system: OVCAR-8 ovarian
[8] = system: RPMI-8226 leukemia
[9] = system: RXF 393 renal
[10] = system: HCT-15 colon
[11] = system: SK-OV-3 ovarian
[12] = system: OVCAR-5 ovarian
[13] = system: SK-MEL-5 melanoma
[14] = system: UACC-62 melanoma
[15] = system: EKVX NSCLC
[16] = system: OVCAR-4 ovarian
[17] = system: NCI-H23 lung
[18] = system: MCF7 breast
[19] = system: T-47D breast

Structure (SMILES)	TGI [1] [µM]	TGI [2] [µM]	TGI [3] [µM]	TGI [4] [µM]	TGI [5] [µM]	TGI [6] [µM]	TGI [7] [µM]	TGI [8] [µM]	TGI [9] [µM]	TGI [10] [µM]	TGI [11] [µM]	TGI [12] [µM]	TGI [13] [µM]	TGI [14] [µM]	TGI [15] [µM]	TGI [16] [µM]	TGI [17] [µM]	TGI [18] [µM]	TGI [19] [µM]
CC(=O)NC(CCCN)C(=O)NCc1ccccc1 (stereo not given)	> 100	> 100	> 100	> 100	> 100	> 100	> 100	> 100	> 100	> 100	> 100	> 100	> 100	> 100	> 100	> 100	> 100	–	–
COc1ccc2c(c1)OCc1c-2oc2ccccc2c1=O	> 100	> 100	–	> 100	> 100	> 100	> 100	> 100	–	> 100	> 100	> 100	> 100	> 100	> 100	–	–	> 100	–
CC1=CC(=O)NCCN1C	> 100	> 100	> 100	> 100	> 100	> 100	> 100	–	> 100	> 100	> 100	> 100	> 100	> 100	> 100	> 100	> 100	–	–
O=C(CC(=O)N1N=C(c2ccccc2)C(N=Nc2ccc(Cl)cc2)C1=O)Nc1ccccc1Cl (stereo not given)	68.2	88.6	52.4	–	85.1	78	–	> 100	–	> 100	40.4	> 100	51.4	53.3	> 100	37.2	97	–	–
N#CCCN(c1ccc(/C=C2\N=C(c3ccc(Cl)cc3)OC2=O)cc1)S(=O)(=O)c1ccccc1	> 100	> 100	> 100	> 100	> 100	> 100	> 100	> 100	–	> 100	> 100	> 100	> 100	> 100	> 100	> 100	> 100	–	–
CCOC(=O)[C@H]1Nc2ccc(C)cc2C2c3ccccc3CC21 (stereo not given in full)	> 100	> 100	> 100	> 100	> 100	> 100	> 100	> 100	> 100	> 100	–	> 100	> 100	> 100	> 100	> 100	> 100	–	–
CCCCCCCCCCCCCCCCCc1cccc(OCOCCOC)c1CO	> 100	> 100	> 100	> 100	> 100	> 100	> 100	> 100	> 100	> 100	> 100	> 100	> 100	> 100	> 100	> 100	> 100	> 100	–
S=C(/N=c1/sc(Nc2ccccc2)nc2sc3c(c12)CCCC3)Nc1ccccc1	–	> 62.5	> 62.5	–	> 62.5	> 62.5	–	> 62.5	> 62.5	> 62.5	> 62.5	> 62.5	> 62.5	> 62.5	> 62.5	> 62.5	> 62.5	> 62.5	–
CC1=CC(=O)NP(=O)(Oc2ccc(C)cc2)N1 (stereo not given)	> 100	> 100	> 100	> 100	> 100	> 100	> 100	> 100	–	> 100	> 100	> 100	> 100	> 100	> 100	> 100	> 100	–	–
O=P(c1ccccc1)(c1ccccc1)C(NCc1ccccc1)c1ccc(F)cc1 (stereo not given)	36.2	29	28.9	29.4	38	37.4	40.6	> 100	28.3	28.7	34.1	–	29.6	27.3	25.4	92.6	31.3	–	60.7
COc1cccc(C2c3cc4c(cc3OC(N3CCCC3)C2C)OCO4)c1 (stereo not given)	24.9	23.6	32.9	37.8	8.61	76.8	> 100	24.3	–	> 100	–	82.1	18.5	34.5	94.1	–	> 100	51.5	70.9
N#CC1=C(N2CCCC2)NC(=O)CC1=O	> 100	> 100	> 100	> 100	> 100	> 100	> 100	> 100	> 100	> 100	> 100	> 100	> 100	> 100	> 100	> 100	> 100	–	> 100
COc1cc(C2c3cc4c(cc3[C@@H](Nc3ccccc3)C3CO[C@@H](OC)[C@H]23)OCO4)cc(OC)c1O (stereo not given in full)	12.1	–	> 25	12.4	–	> 25	> 25	10.2	–	> 25	> 25	23.8	> 25	–	> 25	> 25	–	> 25	> 25
CC(=O)O[C@@H]1C=C(C)[C@H](CBr)O[C@@]2(C)CC[C@H](Br)C(C)(C)[C@H]12	> 100	> 100	> 100	> 100	> 100	> 100	> 100	> 100	> 100	> 100	> 100	> 100	> 100	> 100	> 100	> 100	> 100	> 100	–
O=C1c2ccccc2S[C@@H](O)[C@@H]2CCCN12	> 100	> 100	> 100	> 100	–	> 100	> 100	> 100	> 100	> 100	> 100	> 100	> 100	> 100	> 100	–	> 100	–	–
Cc1ccccc1Nc1cn(COCc2ccccc2)c(=O)[nH]c1=O	–	–	> 100	> 100	> 100	> 100	–	> 100	> 100	> 100	–	> 100	> 100	> 100	> 100	> 100	> 100	> 100	–
CCOC(=O)CC(NC(=O)c1nc[nH]c1[N+](=O)[O-])C(=O)OCC (stereo not given)	> 100	> 100	> 100	> 100	> 100	> 100	> 100	> 100	–	> 100	> 100	–	> 100	> 100	> 100	> 100	49.8	–	–
CC1CN=C(Nc2ccc(S(N)(=O)=O)cc2)S1 (stereo not given)	> 100	> 100	> 100	> 100	> 100	> 100	> 100	> 100	–	> 100	> 100	> 100	> 100	–	> 100	> 100	> 100	> 100	> 100
Cc1nc(N)c(N2CCNCC2)c(=O)[nH]1	> 100	> 100	> 100	> 100	–	> 100	> 100	> 100	–	> 100	–	> 100	–	–	> 100	–	> 100	> 100	> 100
O=C(CC(=O)n1nc(-c2ccccc2)c(N=Nc2ccc(Cl)cc2)c1-c1ccccc1)Nc1cccc(Cl)c1	–	> 100	> 100	–	–	–	> 100	> 100	> 100	> 100	–	> 100	> 100	> 100	> 100	–	> 100	–	> 100
CN(C)/N=C(\CCN1CCCC1)CC(c1ccccc1)c1c(O)c2ccccc2oc1=O (stereo not given)	> 100	> 100	> 100	> 100	> 100	> 100	–	> 100	> 100	–	> 100	> 100	–	> 100	> 100	> 100	> 100	–	–
CC(=O)OC1CC2OC(Cc3ccccc32)O1 (stereo not given)	81.6	> 100	> 100	> 100	–	> 100	> 100	> 100	> 100	–	> 100	–	–	> 100	> 100	–	> 100	–	–
CCN(CC)C(=O)C/C(C)=N/NC(=O)c1ccncc1	> 100	> 100	> 100	> 100	–	> 100	> 100	> 100	> 100	–	> 100	> 100	> 100	> 100	> 100	–	> 100	–	–
COC(=O)C(=O)C(C(=O)C=C(C)C)C(=O)C(=O)Nc1ccc(Cl)cc1C (stereo not given)	> 100	> 100	> 100	> 100	> 100	> 100	> 100	> 100	> 100	> 100	> 100	> 100	> 100	> 100	> 100	> 100	> 100	–	–
Cc1oc2nc(N(C)C)nc(Cl)c2c1C	> 100	> 100	> 100	> 100	> 100	> 100	> 100	> 100	> 100	> 100	–	> 100	> 100	> 100	> 100	> 100	> 100	–	> 100
COC(=O)C(=O)C(C(=O)C(=O)Nc1ccc(C)cc1C)c1nc2ccccc2[nH]c1=O (stereo not given)	98.5	> 100	> 100	> 100	68.9	> 100	> 100	> 100	60	> 100	> 100	> 100	> 100	> 100	> 100	> 100	> 100	–	–
O=[N+]([O-])C(C(Cl)=C(Cl)Cl)=C(N1CCOCC1)N1CCOCC1	> 100	> 100	> 100	> 100	> 100	> 100	> 100	> 100	> 100	> 100	> 100	> 100	> 100	> 100	> 100	> 100	> 100	–	> 100
COC(=O)CCC(=O)NC1c2cccc3cccc(c23)Cn2c(=O)n(C)c(=O)n21 (stereo not given)	> 100	> 100	> 100	> 100	> 100	> 100	> 100	> 100	> 100	> 100	> 100	> 100	> 100	> 100	> 100	> 100	> 100	> 100	–
O=C(c1ccc(Cl)cc1Cl)N(C(=O)N1CCCCC1)c1ccccc1	> 100	> 100	> 100	> 100	> 100	> 100	> 100	> 100	> 100	> 100	> 100	> 100	> 100	> 100	> 100	–	> 100	> 100	–
